Results published in BindingDB's records for doi:10.1021/jm00397a034 (Hoffmann-La Roche, 1988).

Biological target: Platelet-activating factor receptor (Canis familiaris)
Assay: ChEBML_158835
Experimental: Ability to inhibit platelet activating factor (PAF) binding to platelets by 50% was determined by using [3H]PAF as radioligand

SMILES | IC50 [µM]
CC(CCCc1cccnc1)NC(=O)c1ccc2nc3ccc(C(C)C)cc3c(=O)n2c1 (configuration not stated) | 0.4
CC(C)c1ccc2nc3ccc(C(=O)N[C@@H](C)CCCc4cccnc4)cn3c(=O)c2c1 [2-Isopropyl-11-oxo-11H-pyrido[2,1-b]quinazoline-8-carboxylic acid (1-methyl-4-pyridin-3-yl-butyl)-amide] | 0.6
CC(C)c1ccc2nc3ccc(C(=O)N[C@H](C)CCCc4cccnc4)cn3c(=O)c2c1 [2-Isopropyl-11-oxo-11H-pyrido[2,1-b]quinazoline-8-carboxylic acid (1-methyl-4-pyridin-3-yl-butyl)-amide] | 0.25

Biological target: not listed separately
Assay: Ability to inhibit platelet activating factor (PAF) binding to platelets by 50% was determined by using [3H]PAF as radioligand

SMILES | IC50 [µM]
Cc1cc2nc3ccc(C(=O)NCCCCc4cccnc4)cn3c(=O)c2cc1C | 0.25
CC(C)c1ccc2nc3ccc(C(=O)NCCCCc4ccncc4)cn3c(=O)c2c1 | 1.3
CC(C)c1ccc2nc3ccc(C(=O)NCCCCc4cccnc4)cn3c(=O)c2c1 | 0.35
O=C(NCCCCc1cccnc1)c1ccc2nc3ccc(O)cc3c(=O)n2c1 | 1.2
CC(C)Oc1ccc2nc3ccc(C(=O)NCCCCc4cccnc4)cn3c(=O)c2c1 | 0.6
CC(C)c1ccc2nc3ccc(C(=O)NCCCc4cccnc4)cn3c(=O)c2c1 | > 1
CC(C)c1ccc2nc3ccc(C(=O)NCCCCCCCc4cccnc4)cn3c(=O)c2c1 | > 1
COc1ccc2nc3ccc(C(=O)NCCCCc4cccnc4)cn3c(=O)c2c1 | 1
Cc1ccc2nc3ccc(C(=O)NCCCCc4cccnc4)cn3c(=O)c2c1 | 0.5
CC(C)c1ccc2nc3ccc(C(=O)NC(C)(C)CCCc4cccnc4)cn3c(=O)c2c1 | 1.2
COc1ccc2c(=O)n3cc(C(=O)NCCCCc4cccnc4)ccc3nc2c1 | 0.37
CC(C)c1ccc2nc3ccc(C(=O)NCCCCc4ccccn4)cn3c(=O)c2c1 | 5
CC(C)c1ccc2nc3ccc(C(=O)NCCCCCc4cccnc4)cn3c(=O)c2c1 | > 1
CC(C)c1ccc2nc3ccc(C(=O)NCCCCn4ccnc4)cn3c(=O)c2c1 | 3.5
O=C(NCCCCc1cccnc1)c1ccc2nc3ccccc3c(=O)n2c1 | 1.8
CC(C)c1ccc2nc3ccc(C(=O)NCCCCCCc4cccnc4)cn3c(=O)c2c1 | 0.4
CC(C)c1ccc2nc3ccc(C(=O)NCCCCc4cncnc4)cn3c(=O)c2c1 | 0.45
O=C(NCCCCc1cccnc1)c1ccc2nc3ccc(Br)cc3c(=O)n2c1 | 0.7
O=C(NCCCCc1cccnc1)c1ccc2nc3cc(Cl)ccc3c(=O)n2c1 | 1
CC(C)c1ccc2nc3ccc(C(=O)NCCc4cccnc4)cn3c(=O)c2c1 | 2.5
Cc1cc2nc3ccc(C(=O)NCCCCCC[n+]4ccccc4)cn3c(=O)c2cc1C [1-{6-[(2,3-Dimethyl-11-oxo-11H-pyrido[2,1-b]quinazoline-8-carbonyl)-amino]-hexyl}-pyridinium] | > 1
Cc1cc2nc3ccc(C(=O)NCCCCc4cncnc4)cn3c(=O)c2cc1C [2,3-Dimethyl-11-oxo-11H-pyrido[2,1-b]quinazoline-8-carboxylic acid (4-pyrimidin-5-yl-butyl)-amide] | 0.1
CC(C)c1ccc2nc3ccc(CCCCCCc4cccnc4)cn3c(=O)c2c1 [2-Isopropyl-8-(6-pyridin-3-yl-hexyl)-pyrido[2,1-b]quinazolin-11-one] | > 1
CC(C)c1ccc2nc3ccc(CNCCCCc4cccnc4)cn3c(=O)c2c1 [2-Isopropyl-8-[(4-pyridin-3-yl-butylamino)-methyl]-pyrido[2,1-b]quinazolin-11-one] | > 1
CC(C)c1ccc2nc3ccc(C(=O)OCCCCc4cccnc4)cn3c(=O)c2c1 [2-Isopropyl-11-oxo-11H-pyrido[2,1-b]quinazoline-8-carboxylic acid 4-pyridin-3-yl-butyl ester] | > 1
CC(C)c1ccc2nc3ccc(C(=O)NCCCCCCc4cncnc4)cn3c(=O)c2c1 [2-Isopropyl-11-oxo-11H-pyrido[2,1-b]quinazoline-8-carboxylic acid (6-pyrimidin-5-yl-hexyl)-amide] | 0.2
CC(C)c1ccc2nc3ccc(S(=O)(=O)NCCCCc4cccnc4)cn3c(=O)c2c1 [2-Isopropyl-11-oxo-11H-pyrido[2,1-b]quinazoline-8-sulfonic acid (4-pyridin-3-yl-butyl)-amide] | > 1
Cc1cc2nc3ccc(C(=O)NCCCCc4ccc[n+](C)c4)cn3c(=O)c2cc1C [3-{4-[(2,3-Dimethyl-11-oxo-11H-pyrido[2,1-b]quinazoline-8-carbonyl)-amino]-butyl}-1-methyl-pyridinium] | > 1
Cc1cc2nc3ccc(C(=O)NCCCCc4cnc[n+](C)c4)cn3c(=O)c2cc1C [5-{4-[(2,3-Dimethyl-11-oxo-11H-pyrido[2,1-b]quinazoline-8-carbonyl)-amino]-butyl}-1-methyl-pyrimidin-1-ium] | > 1
